In patent US7056863B1, “Synergistic herbicidal compositions herbicides from the group of the hydroxyphenylpyruvate dioxygenase inhibitors” (Aventis CropScience GmbH, priority 1999, dated 2006):

Legend:
KCHSC (Kochia scoparia) = test: Outdoor plot trial, post-emergence treatment, visual evaluation of herbicidal activity; type: in vivo; conditions: Example B.I, outdoors
Protocol: (§1) Outdoors, crop plants were grown on plots of a size of from 5 to 10 m^2 on various soils and under various climatic conditions, and the natural presence of harmful plants and/or their seeds in the soil was utilized for the experiments. The treatment with the compositions according to the invention or the herbicides A) and B) applied individually was carried out after emergence of the harmful and the crop plants, in general at the 2- to 4-leaf stage. The active compounds or active compound combinations, formulated as WG, WP or EC, was carried out by the post-emergence method. After 2 to 8 weeks, visual evaluation was carried out in comparison with an untreated comparative group. […] In addition, the herbicidal activities of the compositions according to the invention exceed the expected values according to Colby.
(§2) If the observed activity values of the mixtures already exceed the formal sum of the values for the trials with individual applications, they also exceed the expected value according to Colby which is calculated using the following formula (cf. S. R. Colby; in Weeds 15 (1967) pp. 20 to 22):
(§3) The figures denote: • A, B=Activity of Components A and B in percent, at a dosage of a and b gram of ai/ha, respectively. • E=Expected value in % at a dosage of a+b gram of ai/ha.

[1] = test system: PHBPU (Pharbitis purpurea); test: as above; type: in vivo; conditions: outdoors
Protocol: as §1, §2, §3

[2] = test system: POROL (Portulaca oleracea); test: as above; type: in vivo; conditions: outdoors
Protocol: as §1, §2, §3

[3] = test system: CHEAL (Chenopodium album); test: as above; type: in vivo; conditions: outdoors
Protocol: as §1, §2, §3

TRZDU (Triticum davam) = test: Outdoor plot trial, post-emergence treatment, damage to crop plant; conditions: in vivo
Protocol: as §1

HORVS (Hordeum vulgaris) = test: as above; type: in vivo; conditions: Example B.VI, 100 g of ai/ha
Protocol: as §1

ZEAMX (Zea mays) = test: as above; type: in vivo; conditions: Example B.VII, 300 g of ai/ha
Protocol: as §1

BRAPL = test: Outdoor plot trial, post-emergence treatment, visual evaluation of herbicidal activity; type: in vivo; conditions: Example B.VII, 300 g of ai/ha, outdoors
Protocol: as §1, §2, §3

CS(=O)(=O)c1ccc(C(=O)C2C(=O)CCCC2=O)c(Cl)c1C1=NOCC1 [Compound A1] was tested, and the KCHSC found (KCHSC (Kochia scoparia); 25 g of ai/ha) was 28%.

For Cc1cc(C(=O)C2C(=O)CCCC2=O)c(C)c2c1S(=O)(=O)CCC2Oc1ncccn1 (stereo not shown) [Compound A2], the PHBPU found ([1]; Example B.II, 50 g of ai/ha) was 65%, the PHBPU found ([1]; Example B.III, 100 g of ai/ha) was 45% and the POROL found ([2]; Example B.V, 100 g of ai/ha) was 0%. It also gave a CHEAL found ([3]; Example B.IV, 100 g of ai/ha) of 34%.

Compound CS(=O)(=O)c1ccc(C(=O)C2C(=O)CCCC2=O)c(Cl)c1COCC(F)(F)F [Compound A4] has a TRZDU found (TRZDU (Triticum davam)) of 5% and a POROL found ([2]; Example B.VIII, 25 g of ai/ha) of 5%.

COc1cc(OC)nc(NC(=O)NS(=O)(=O)c2ccc(NC=O)cc2C(=O)N(C)C)n1 [Compound B1] showed a PHBPU found ([1]; Example B.II, 30 g of ai/ha) of 20%, a POROL found ([2]; Example B.V, 30 g of ai/ha) of 43% and a KCHSC found (KCHSC (Kochia scoparia); 30 g of ai/ha) of 30%. The KCHSC found (KCHSC (Kochia scoparia); 60 g of ai/ha) was 33%.

CP(=O)(O)CCC(N)C(=O)O (stereo not shown) [Compound B2, glufosinate] gave a PHBPU found ([1]; Example B.III, 500 g of ai/ha) of 43% and a CHEAL found ([3]; Example B.IV, 500 g of ai/ha) of 60%.

In the case of CC(C)(F)c1nc(N)nc(NC(CCc2ccccc2)C2CCC2)n1 (stereo not shown) [Compound B3], the HORVS found (HORVS (Hordeum vulgaris)) is reported as 0% and the CHEAL found ([3]; Example B.VI, 100 g of ai/ha) is reported as 30%.

With COC(=O)c1ccc(I)cc1S(=O)(=O)[N-]C(=O)Nc1nc(C)nc(OC)n1.[Na+] [Compound B4] the TRZDU found (TRZDU (Triticum davam)) was 15% and the POROL found ([2]; Example B.VIII, 2.5 g of ai/ha) was 20%.

Work on N#Cc1cc(Br)c(O)c(Br)c1 [Compound B5, bromoxynil] yielded a ZEAMX found (ZEAMX (Zea mays)) of 0% and a BRAPL found (BRAPL) of 0%.
